Test results as given in patent US10561704B2, “Compositions and methods for treating neuropsychiatric disorders using an endothelin-B receptor agonist” (MIDWESTERN UNIVERSITY, priority 2013, dated 2020).
*1 amine or outer side, *2 acyl side, *3 side chain or, on linkers, in order; H or OH if unused. Where no end group is shown, it is not given here. Suc = O=C(CCC(=O)[*:2])[*:1]

Test system: Aβ treated non-diabetic and diabetic rats
Test: Morris water maze test for cognitive impairment in Aβ treated rats
Format: in vivo, Sprague-Dawley rats
Description: Amyloid-β (1-40) (Tocris Bioscience, Ellisville, Mo., USA), IRL-1620 [N-Succinyl-[Glu9, Ala11,15] endothelin 1] (American Peptide Co, Inc., Sunnyvale, Calif., USA) and BQ788 (American Peptide Co, Inc., Sunnyvale, Calif., USA) were dissolved in sterile saline and all the solutions were freshly prepared before injections. Ketamine (Butler Animal Health Supply, Dublin, Ohio, USA) was administered at a dose of 100 mg/kg, intraperitoneally (i.p.), and xylazine (Lloyd Laboratories, Shenandoah, Iowa, USA) was administered at a dose of 10 mg/kg, i.p. Rats were anesthetized with ketamine (100 mg/kg) and xylazine (10 mg/kg) and a lateral cerebral ventricle was cannulated by placing the rat in a stereotaxic (David Kopf Instruments, Tujunga, Calif., USA) instrument and fixing the cannula (coordinates: 1.0 mm lateral, 1.5 mm caudal to bregma and 4.0 mm deep from the bone). Cannula (Plastics One, Roanoke, Va., USA) was anchored with dental acrylic to three screws placed in the skull. The animals were allowed to recover from surgery for at least seven days. After 7 days, rats were treated with vehicle, Aβ (1-40), ETB receptor agonist and/or antagonist in the lateral cerebral ventricles using the implanted cannula. Vehicle, Aβ or ETB receptor agonist and antagonist were injected in a volume of 5 μl over a period of 5 minutes. Aβ (1-40) was used because it is highly soluble compared to Aβ (1-42) and induces endothelial dysfunction of both cerebral and systemic blood vessels in addition to memory deficit (Nitta et al., 1994; Niwa et al., 2000; Smith et al., 2004; Weller et al., 1998). Agents were delivered using 10 μl Hamilton syringe and agent treatments were carried out individually using separate 10 μl syringe. IRL-1620 was administered 1 hour after Aβ injection whereas BQ788 was administered 15 minutes prior to IRL-1620 injection. At the end of the experiment, placement of cannula was confirmed by injecting methylene blue dye (5 μl) and observing the site and extent of staining. All experiments were performed on day 15 (Briyal et al., 2011). Water maze testing was performed from day 15 to day 19 after which animals were euthanized. Animals used for oxidative stress measurements were euthanized on day 15 without being subjected to any behavioral testing. Diabetes mellitus type 2 was induced in rats belonging to the diabetic group by administering freshly prepared streptozotocin at the dose of 45 mg/kg, i.p. Streptozotocin was dissolved in 0.01 M sodium citrate buffer of pH 4.3. On day 3, blood glucose was obtained from the rat-tail and tested for hyperglycemia using the SureStep Complete Blood Glucose monitor kit. Rats with blood glucose levels above 11.1 mM were considered diabetic. Diabetic and non-diabetic animals were randomly divided into five groups (6 rats per group) (i) Sham, (ii) Aβ+Vehicle, (iii) Aβ+IRL-1620, (iv) Aβ+BQ788 (v) Aβ+BQ788+IRL-1620. Aβ (1-40) was administered intracerebroventricularly (i.c.v.) (20 μg in 3 equally divided doses i.e. 6.67 μg were injected 3 times for a total of 20 μg dose) on day 1, 7, and 14. Specific ETB receptor agonist, IRL-1620 (3 μg) and specific ETB receptor antagonist, BQ788 (10 μg) were administered i.c.v. daily for 14 days starting from day 1 of Aβ injection. The doses of IRL-1620 and BQ788 were selected on the basis of previous studies conducted in our laboratory (Leonard et al., 2011).
Spatial learning and memory of animals were tested in a MWM (Morris, 1984). […]

| Compound | Improvement in escape latency produced by IRL-1620 (Aβ rats, BQ788 given with IRL-1620) | Time spent in the target quadrant, probe trial (Aβ treated rats given BQ788) | Escape latency, water maze acquisition (Aβ treated rats, day 3 and 4 of training, vs Aβ + vehicle) | Path length, water maze acquisition (Aβ treated rats, vs vehicle group) | Time spent in the target quadrant, probe trial (Aβ treated rats, vs vehicle treated Aβ rats) |
| --- | --- | --- | --- | --- | --- |
| CCCC[C@@H](NC(=O)[C@@H](Cc1cn(C(=O)OC)c2ccccc12)NC(=O)[C@H](CC(C)(C)C)NC(=O)N1[C@H](C)CCC[C@@H]1C)C(=O)O [BQ788, reference compound] | blocked | did not produce any improvement | – | – | – |
| Suc-Asp-Glu-Glu-Ala-Val-Tyr-Phe-Ala-His-Leu-Asp-Ile-Ile-Trp (Suc-DEEAVYFAHLDIIW) [IRL-1620] | – | – | decreased significantly | shorter path lengths | increased |
